Measurements published in PMC5546207 (Cancer discovery, 2017).
Where two headings read alike, the source gives them in different places.

What was measured:
Plasma pharmacokinetics = format: in vivo, human; conditions: for AUC / Cmax / Tmax: human, plasma, oral; for AUC: AUCtau [mean ± standard deviation]; for Cmax: Cmax [mean ± standard deviation]; for Tmax: Tmax [median (range)]
patients = conditions: cited from earlier work; for incidence of hyperglycemia: single agent
[1] = 200 mg encorafenib at steady state, dual combination
[2] = 200 mg encorafenib in the presence of 300 mg alpelisib, steady state, triple combination
[3] = 300 mg alpelisib at steady state, triple combination

Compound	exposure vs dual-combination therapy group (Plasma pharmacokinetics; 200 mg encorafenib in the presence of 100 mg alpelisib)	drug–drug interaction between encorafenib and cetuximab (Plasma pharmacokinetics; dual-combination therapy group)	AUC (Plasma pharmacokinetics; [1])	AUC (Plasma pharmacokinetics; [2])	Cmax (Plasma pharmacokinetics; [1])	Cmax (Plasma pharmacokinetics; [2])	Tmax (Plasma pharmacokinetics; [1])	Tmax (Plasma pharmacokinetics; [2])	single agent MTD/RP2D (patients; first-in-human study)	AUC (Plasma pharmacokinetics; [3])	Cmax (Plasma pharmacokinetics; [3])	exposure affected by encorafenib and cetuximab (Plasma pharmacokinetics; triple-combination therapy group)	incidence of hyperglycemia (patients; all grade, patients with solid tumors)	incidence of hyperglycemia (patients; grade 3/4, patients with solid tumors)
COC(=O)N[C@@H](C)CNc1nccc(-c2cn(C(C)C)nc2-c2cc(Cl)cc(NS(C)(=O)=O)c2F)n1 [encorafenib]	similar	No evidence of drug–drug interaction	7170 ± 2890 ng·h/mL	12900 ng·h/mL	1430 ± 824 ng/mL	2390 ± 2080 ng/mL	2 h	3 h	450 mg	–	–	–	–	–
Cc1nc(NC(=O)N2CCC[C@H]2C(N)=O)sc1-c1ccnc(C(C)(C)C(F)(F)F)c1 [alpelisib]	–	–	–	–	–	–	–	–	–	25100 ng·h/mL	2740 ± 520 ng/mL	not affected	47%	24%
